Reference: BindingDB's records for doi:10.1016/j.bmcl.2004.12.068 (Pharmacor, 2005)
Structures can show the parent of a compound that is named as a salt.

target: T1, Dimer of Gag-Pol polyprotein [501-599] (Human immunodeficiency virus 1, UniProt P03367); test: Protease Inhibition Assay; settings: not given
T1 construct: 501-599
Protocol: HIV-1 protease activity was measured by a continuous fluorometric assay using the internally quenched fluorogenic substrate DABCYL-Ser-Gln-Asn-Tyr-Pro-Ile-Val-Gln-EDANS. The proteolytic activity can be monitored by the increase in fluorescence intensity, and the protease products were analyzed by HPLC.

Row | Compound | Ki [nM]
1 | Cc1ccc(S(=O)(=O)N(CC(C)C)[C@@H](CCCCNC(=O)OCC2c3ccccc3-c3ccccc32)C(N)=O)cc1 [9H-fluoren-9-ylmethyl N-[(5S)-5-carbamoyl-5-[(4-methylbenzene)(2-methylpropyl)sulfonamido]pentyl]carbamate] | 107
2 | Cc1ccc(S(=O)(=O)N(CC(C)C)[C@H](CO)CCCCNC(=O)OCC2c3ccccc3-c3ccccc32)cc1 [9H-fluoren-9-ylmethyl N-[(5S)-6-hydroxy-5-[(4-methylbenzene)(2-methylpropyl)sulfonamido]hexyl]carbamate] | 105
3 | Cc1ccc(S(=O)(=O)N(CC(C)C)[C@H](CN)CCCCNC(=O)OCC2c3ccccc3-c3ccccc32)cc1 [9H-fluoren-9-ylmethyl N-[(5S)-6-amino-5-[(4-methylbenzene)(2-methylpropyl)sulfonamido]hexyl]carbamate hydrochloride] | > 300
4 | CC(C)CN(C(=O)c1ccccc1)[C@@H](CCCCNC(=O)OCC1c2ccccc2-c2ccccc21)C(=O)O [(2S)-6-{[(9H-fluoren-9-ylmethoxy)carbonyl]amino}-2-[N-(2-methylpropyl)phenylformamido]hexanoic acid] | > 300
5 | Cc1ccc(S(=O)(=O)N(CC(C)C)[C@@H](CCCCNC(=O)OCC2c3ccccc3-c3ccccc32)C(=N)N)cc1 [9H-fluoren-9-ylmethyl N-[(5S)-5-carbamimidoyl-5-[(4-methylbenzene)(2-methylpropyl)sulfonamido]pentyl]carbamate] | 280
6 | Cc1ccc(S(=O)(=O)N(CC(C)C)[C@H](C=O)CCCCNC(=O)OCC2c3ccccc3-c3ccccc32)cc1 [9H-fluoren-9-ylmethyl N-[(5S)-5-[(4-methylbenzene)(2-methylpropyl)sulfonamido]-6-oxohexyl]carbamate] | > 300
7 | Cc1ccc(S(=O)(=O)N(CC(C)C)[C@@H](CCCCCNC(=O)OCC2c3ccccc3-c3ccccc32)C(=O)O)cc1 [(2S)-7-{[(9H-fluoren-9-ylmethoxy)carbonyl]amino}-2-[(4-methylbenzene)(2-methylpropyl)sulfonamido]heptanoic acid] | > 250
8 | Cc1ccc(S(=O)(=O)N(CC(C)C)[C@@H](CCCCNC(=O)OC(C)(C)C)C(=O)O)cc1 [(2S)-6-{[(tert-butoxy)carbonyl]amino}-2-[(4-methylbenzene)(2-methylpropyl)sulfonamido]hexanoic acid] | > 250
9 | Cc1ccc(S(=O)(=O)N(CC(C)C)[C@@H](CCCCNC(=O)C2c3ccccc3-c3ccccc32)C(=O)O)cc1 [(2S)-6-(9H-fluoren-9-ylformamido)-2-[(4-methylbenzene)(2-methylpropyl)sulfonamido]hexanoic acid] | 105
10 | Cc1ccc(S(=O)(=O)N(CC(C)C)[C@@H](CCCCNC(=O)OCC2c3ccccc3-c3ccccc32)C(N)=S)cc1 [9H-fluoren-9-ylmethyl N-[(5S)-5-carbamothioyl-5-[(4-methylbenzene)(2-methylpropyl)sulfonamido]pentyl]carbamate] | 127
11 | Cc1ccc(S(=O)(=O)N(CC(C)C)[C@@H](CCCCNC(=O)OCC2c3ccccc3-c3ccccc32)C(=O)NO)cc1 [9H-fluoren-9-ylmethyl N-[(5S)-5-(hydroxycarbamoyl)-5-[(4-methylbenzene)(2-methylpropyl)sulfonamido]pentyl]carbamate] | 245
12 | Cc1ccc(S(=O)(=O)N(CC(C)C)[C@@H](CCCCNC(=O)OCC2c3ccccc3-c3ccccc32)C(=O)NN)cc1 [9H-fluoren-9-ylmethyl N-[(5S)-5-(hydrazinecarbonyl)-5-[(4-methylbenzene)(2-methylpropyl)sulfonamido]pentyl]carbamate] | 254
13 | Cc1ccc(S(=O)(=O)N(CC(C)C)[C@@H](CNC(=O)OCC2c3ccccc3-c3ccccc32)C(=O)O)cc1 [(2S)-3-{[(9H-fluoren-9-ylmethoxy)carbonyl]amino}-2-[(4-methylbenzene)(2-methylpropyl)sulfonamido]propanoic acid] | > 250
14 | Cc1ccc(S(=O)(=O)N(CC(C)C)[C@@H](CCNC(=O)OCC2c3ccccc3-c3ccccc32)C(=O)O)cc1 [(2S)-4-{[(9H-fluoren-9-ylmethoxy)carbonyl]amino}-2-[(4-methylbenzene)(2-methylpropyl)sulfonamido]butanoic acid] | > 250
15 | Cc1ccc(S(=O)(=O)N(CC(C)C)[C@@H](CCCCNC(=O)OCC2c3ccccc3-c3ccccc32)c2nnn[nH]2)cc1 [9H-fluoren-9-ylmethyl N-[(5S)-5-[(4-methylbenzene)(2-methylpropyl)sulfonamido]-5-(1H-1,2,3,4-tetrazol-5-yl)pentyl]carbamate] | > 300
16 | COC(=O)[C@H](CCCCNC(=O)OCC1c2ccccc2-c2ccccc21)N(CC(C)C)S(=O)(=O)c1ccc(C)cc1 [methyl (2S)-6-{[(9H-fluoren-9-ylmethoxy)carbonyl]amino}-2-[(4-methylbenzene)(2-methylpropyl)sulfonamido]hexanoate] | > 300

same assay, conditions: pH 4.7; 30 °C

Row | Compound | Ki [nM]
17 | Cc1ccc(S(=O)(=O)NCCC[C@H](NC(=O)OCC2c3ccccc3-c3ccccc32)C(=O)O)cc1 [(2S)-2-{[(9H-fluoren-9-ylmethoxy)carbonyl]amino}-5-[(4-methylbenzene)sulfonamido]pentanoic acid] | 26200
18 | Cc1ccc(S(=O)(=O)N(CCCC[C@H](NC(=O)OCC2c3ccccc3-c3ccccc32)C(=O)O)CC(C)C)cc1 [(2S)-2-{[(9H-fluoren-9-ylmethoxy)carbonyl]amino}-6-[(4-methylbenzene)(2-methylpropyl)sulfonamido]hexanoic acid] | 2000
19 | Cc1ccc(S(=O)(=O)N(CC(C)C)[C@@H](CCCCNC(=O)OCC2c3ccccc3-c3ccccc32)C(=O)O)cc1 [(2S)-6-{[(9H-fluoren-9-ylmethoxy)carbonyl]amino}-2-[(4-methylbenzene)(2-methylpropyl)sulfonamido]hexanoic acid] | 5
20 | CC(C)(C)OC(=O)NCCCC[C@H](NC(=O)OCc1ccccc1)C(=O)O [(2S)-2-{[(benzyloxy)carbonyl]amino}-6-{[(tert-butoxy)carbonyl]amino}hexanoic acid] | > 100000
21 | Cc1ccc(S(=O)(=O)N[C@@H](CCCCNC(=O)OC(C)(C)C)C(=O)O)cc1 [(2S)-6-{[(tert-butoxy)carbonyl]amino}-2-[(4-methylbenzene)sulfonamido]hexanoic acid] | > 100000
